Laboratory results reported in ChEMBL document CHEMBL1139152, “Epoxygenase eicosanoids: synthesis of tetrahydrofuran-diol metabolites and their vasoactivity” (Bioorg Med Chem Lett, 2007).
Activity calls are given as the source filed them. The rule behind the calls is not given here.

Key:
[1] = Vasodilatory activity assessed as relaxation of U46619-induced contraction of bovine coronary arteries at 10 nM to 10 uM; type: functional, tissue-based; settings: Bos taurus, Coronary artery
[2] = Vasodilatory activity assessed as relaxation of U46619-induced contraction of bovine coronary arteries; type: functional; settings: Bos taurus; Coronary artery

Compound | Activity [1] | ED50 [2] [µM]
CCCCCC1OC1C/C=C/C/C=C/C/C=C/CCCC(=O)O (centres undefined) | Active | 2.5
CCCCC/C=C\C[C@H]1O[C@H]([C@@H](O)C/C=C\CCCC(=O)O)C[C@H]1O | Active | –
CCCCC/C=C\C[C@@H]1O[C@H]([C@H](O)C/C=C\CCCC(=O)O)C[C@@H]1O | Active | –
CCCCC/C=C\C[C@@H]1O[C@H]([C@H](O)C/C=C\CCCC(=O)O)C[C@H]1O | Active | –
CCCCC/C=C\C[C@H]1O[C@H]([C@@H](O)C/C=C\CCCC(=O)O)C[C@@H]1O | Active | –
CCCCC/C=C\C[C@H]1O[C@H]([C@H](O)C/C=C\CCCC(=O)O)C[C@@H]1O | Active | –
CCCCC/C=C\C[C@H]1O[C@H]([C@H](O)C/C=C\CCCC(=O)O)C[C@H]1O | Active | 3
